Values of other authors, collected in patent US11197931B2, “Liquid injectable copolymer” (Queen's University at Kingston, priority 2017, dated 2021).

Conditions: 25° C.

Compound: C[C@]12C=CC(=O)C=C1CC[C@H]1[C@@H]3C[C@@H](O)[C@](O)(C(=O)CO)[C@@]3(C)C[C@H](O)[C@@]12F [triamcinolone]
- saturation concentration: 80 mg/L
